Results reported in patent publication USRE47689E1, “Compounds for treating spinal muscular atrophy” (PTC Therapeutics, Inc., priority 2011, dated 2019).
Like-named read-outs stand apart in the source and are kept apart here.

Columns and labels:
[1] = system: Smn protein; assay: Smn protein assay in cultured cells (SMN HTRF); format: cell-based, human; settings: 48 hours; for EC1.5x (concentration giving 1.5-fold Smn protein increase): SMA Type 1 patient fibroblast cells (GM03813), 7-point concentration curve, SMN HTRF, concentration producing 1.5 times Smn protein vs DMSO vehicle control, read-out: EC1.5x for Smn protein expression; for maximum fold (Fold) increase of Smn protein: SMA patient fibroblast cells, 7-point concentration data, fold increase relative to vehicle control (SMN HTRF)
In short: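 Smn in SMA fibroblast lysates, measured by anti-SMN HTRF after 48 h compound exposure; EC1.5x from fold change over vehicle.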

[2] = system: SMN2 minigene (full length SMN2 minigene mRNA containing SMN2 exon 7); assay: SMN2 minigene mRNA splicing RT-qPCR assay in cultured cells; format: cell-based, human; settings: Homo sapiens, HEK293-H, read-out: EC1.5x for production of full length SMN2 mRNA
In short: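 Full-length SMN2 minigene mRNA (exon 7 included), minigene-specific and not endogenous SMN, quantified by RT-qPCR multiplexed with GAPDH in stably transfected HEK293H cells after 24 h compound exposure at 37° C. Abundance from efficiency-corrected Ct, normalized to GAPDH and vehicle; EC1.5x reported as star bins.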

[3] = HEK293H cells stably transfected with SMN2-A minigene, 24 hours, 7-point concentration curve, 1.5-fold relative to vehicle-treated cells

In the case of Cc1nc(Cl)cn2cc(-c3cc4ccc(N5CCN(C)[C@@H](C)C5)cc4oc3=O)nc12 [Compound 727, 3-(6-chloro-8-methylimidazo[1,2-a]pyrazin-2-yl)-7-[(3S)-3,4-dimethylpiperazin-1-yl]-2H-chromen-2-one], the EC1.5x (concentration giving 1.5-fold Smn protein increase) [1] is reported as 1000 to 3000 nM, the “maximum fold (Fold) increase of Smn protein” value (from here on “maximum fold (Fold) increase”) [1] is reported as “*** (fold increase between >1.35 and ≤1.5)” and the melting point is reported as 251 to 253 °C. For the same compound, the EC (1.5-fold) [2, 3] was 0.1 to 0.3 µM.

In the case of Cc1cn2cc(-c3cc4ccc(NC5C[C@H]6CCC[C@@H](C5)N6C)cc4oc3=O)cc2c(C)n1 (stereo partly drawn) [Compound 728, 3-(1,3-dimethylpyrrolo[1,2-a]pyrazin-7-yl)-7-{[(1R,5S)-9-methyl-9-azabicyclo[3.3.1]non-3-yl]amino}-2H-chromen-2-one], the “maximum fold (Fold) increase” value [1] is reported as “* (maximum fold increase of ≤1.2)”, the melting point is reported as 235 to 238 °C and the EC (1.5-fold) ([2]; 24 h) is reported as 0.3 to 1 µM.

For Cc1cn2cc(-c3cc4ccc(N5C[C@@H]6CCN(C)[C@@H]6C5)cc4oc3=O)cc2c(C)n1 [Compound 729, 3-(1,3-dimethylpyrrolo[1,2-a]pyrazin-7-yl)-7-[(3aS,6aS)-1-methylhexahydropyrrolo[3,4-b]pyrrol-5(1H)-yl]-2H-chromen-2-one], the EC1.5x (concentration giving 1.5-fold Smn protein increase) [1] was 1000 to 3000 nM, the “maximum fold (Fold) increase” value [1] was “*** (fold increase between >1.35 and ≤1.5)” and the melting point was 173 to 175 °C. It also gave an EC (1.5-fold) [2, 3] of under 0.1 µM.

In the case of Cc1cn2cc(-c3cc4ccc(N[C@@H]5CCN(C)C5)cc4oc3=O)nc2c(C)n1 [Compound 730, 3-(6,8-dimethylimidazo[1,2-a]pyrazin-2-yl)-7-{[(3R)-1-methylpyrrolidin-3-yl]amino}-2H-chromen-2-one], the “maximum fold (Fold) increase” value [1] is reported as “*** (fold increase between >1.35 and ≤1.5)”, the melting point is reported as 226 to 233 °C and the EC (1.5-fold) [2, 3] is reported as under 0.1 µM.

For CCN1CC[C@@H](Nc2ccc3cc(-c4cn5cc(C)nc(C)c5n4)c(=O)oc3c2)C1 [Compound 731, 3-(6,8-dimethylimidazo[1,2-a]pyrazin-2-yl)-7-{[(3R)-1-ethylpyrrolidin-3-yl]amino}-2H-chromen-2-one], the “maximum fold (Fold) increase” value [1] was “*** (fold increase between >1.35 and ≤1.5)”, the melting point was 209 to 215 °C and the EC (1.5-fold) [2, 3] was under 0.1 µM.

For Cc1cn2cc(-c3cc4ccc(N[C@@H]5CCN(CCO)C5)cc4oc3=O)nc2c(C)n1 [Compound 732, 3-(6,8-dimethylimidazo[1,2-a]pyrazin-2-yl)-7-{[(3R)-1-(2-hydroxyethyl)pyrrolidin-3-yl]amino}-2H-chromen-2-one], the EC1.5x (concentration giving 1.5-fold Smn protein increase) [1] was under 300 nM, the “maximum fold (Fold) increase” value [1] was “*** (fold increase between >1.35 and ≤1.5)” and the melting point was 211 to 219 °C. The EC (1.5-fold) [2, 3] was under 0.1 µM.

With Cc1cn2cc(-c3cc4ccc(N[C@@H]5CCN(C(C)C)C5)cc4oc3=O)nc2c(C)n1 [Compound 733, 3-(6,8-dimethylimidazo[1,2-a]pyrazin-2-yl)-7-{[(3R)-1-(propan-2-yl)pyrrolidin-3-yl]amino}-2H-chromen-2-one] the “maximum fold (Fold) increase” value [1] was “*** (fold increase between >1.35 and ≤1.5)”, the melting point was 200 to 207 °C and the EC (1.5-fold) [2, 3] was under 0.1 µM.

For Cc1cn2cc(-c3cc4ccc(N5C[C@@H](O)[C@H](N(C)C)C5)cc4oc3=O)cc2c(C)n1 [Compound 734, 7-[(3R,4R)-3-(dimethylamino)-4-hydroxypyrrolidin-1-yl]-3-(1,3-dimethylpyrrolo[1,2-a]pyrazin-7-yl)-2H-chromen-2-one], the EC1.5x (concentration giving 1.5-fold Smn protein increase) [1] was under 300 nM, the “maximum fold (Fold) increase” value [1] was “**** (fold increase between >1.5 and ≤1.65)” and the melting point was 173 to 176 °C. For the same compound, the EC (1.5-fold) [2, 3] was under 0.1 µM.

For CCN(CC)C1CCN(c2ccc3cc(-c4cc5c(C)nc(C)cn5c4)c(=O)oc3c2)C1 (stereo not drawn) [Compound 735, 7-[3-(diethylamino)pyrrolidin-1-yl]-3-(1,3-dimethylpyrrolo[1,2-a]pyrazin-7-yl)-2H-chromen-2-one], the EC1.5x (concentration giving 1.5-fold Smn protein increase) [1] was 300 to 1000 nM, the “maximum fold (Fold) increase” value [1] was “**** (fold increase between >1.5 and ≤1.65)” and the melting point was 165 to 168 °C. The EC (1.5-fold) [2, 3] was under 0.1 µM.

With Cc1cn2cc(-c3cc4ccc(N5CCN(C)C(C)(C)C5)cc4oc3=O)nc2c(C)n1 [Compound 737, 3-(6,8-dimethylimidazo[1,2-a]pyrazin-2-yl)-7-(3,3,4-trimethylpiperazin-1-yl)-2H-chromen-2-one] the EC1.5x (concentration giving 1.5-fold Smn protein increase) [1] was under 300 nM, the “maximum fold (Fold) increase” value [1] was “***** (fold increase >1.65)” and the melting point was 185 to 187 °C. For the same compound, the EC (1.5-fold) [2, 3] was under 0.1 µM.

For Cc1cn2cc(-c3cc4ccc(N5C[C@H](O)[C@@H](N(C)C)C5)cc4oc3=O)nc2c(C)n1 [Compound 738, 7-[(3S,4S)-3-(dimethylamino)-4-hydroxypyrrolidin-1-yl]-3-(6,8-dimethylimidazo[1,2-a]pyrazin-2-yl)-2H-chromen-2-one], the EC1.5x (concentration giving 1.5-fold Smn protein increase) [1] was under 300 nM, the “maximum fold (Fold) increase” value [1] was “***** (fold increase >1.65)” and the melting point was 270 to 272 °C. The EC (1.5-fold) [2, 3] was under 0.1 µM.

With Cc1cn2cc(-c3cc4ccc(N5C[C@H](O)[C@@H](N6CCCC6)C5)cc4oc3=O)nc2c(C)n1 [Compound 739, 3-(6,8-dimethylimidazo[1,2-a]pyrazin-2-yl)-7-[(3′S,4′S)-4′-hydroxy-1,3′-bipyrrolidin-1′-yl]-2H-chromen-2-one] the EC1.5x (concentration giving 1.5-fold Smn protein increase) [1] was under 300 nM, the “maximum fold (Fold) increase” value [1] was “**** (fold increase between >1.5 and ≤1.65)” and the melting point was 273 to 275 °C. For the same compound, the EC (1.5-fold) [2, 3] was under 0.1 µM.

In the case of Cc1cn2cc(-c3cc4ccc(N5C[C@H]6CN(CCO)C[C@H]6C5)cc4oc3=O)nc2c(C)n1 [Compound 741, 3-(6,8-dimethylimidazo[1,2-a]pyrazin-2-yl)-7-[(3aR,6aS)-5-(2-hydroxyethyl)hexahydropyrrolo[3,4-c]pyrrol-2(1H)-yl]-2H-chromen-2-one], the EC1.5x (concentration giving 1.5-fold Smn protein increase) [1] is reported as under 300 nM, the “maximum fold (Fold) increase” value [1] is reported as “***** (fold increase >1.65)” and the melting point is reported as 258 to 268 °C. It also gave an EC (1.5-fold) [2, 3] of under 0.1 µM.

For Cc1cn2cc(-c3cc4ccc(N5C[C@@H]6CN(C(C)C)C[C@@H]6C5)cc4oc3=O)nc2c(C)n1 [Compound 743, 3-(6,8-dimethylimidazo[1,2-a]pyrazin-2-yl)-7-[(3aR,6aS)-5-(propan-2-yl)hexahydropyrrolo[3,4-c]pyrrol-2(1H)-yl]-2H-chromen-2-one], the EC1.5x (concentration giving 1.5-fold Smn protein increase) [1] was under 300 nM, the “maximum fold (Fold) increase” value [1] was “***** (fold increase >1.65)” and the melting point was 249 to 258 °C. The EC (1.5-fold) [2, 3] was under 0.1 µM.

For Cc1cc2cc(-c3cc4ccc(N5CCN6CCC[C@H]6C5)cc4oc3=O)oc2c(C)n1 [Compound 745, 3-(5,7-dimethylfuro[2,3-c]pyridin-2-yl)-7-[(8aS)-hexahydropyrrolo[1,2-a]pyrazin-2(1H)-yl]-2H-chromen-2-one], the EC1.5x (concentration giving 1.5-fold Smn protein increase) [1] was under 300 nM, the “maximum fold (Fold) increase” value [1] was “***** (fold increase >1.65)” and the melting point was 203 to 205 °C. The EC (1.5-fold) [2, 3] was under 0.1 µM.

With CCN1CCN(c2cc(F)c3cc(-c4cn5cc(C)nc(C)c5n4)c(=O)oc3c2)CC1 [Compound 746, 3-(6,8-dimethylimidazo[1,2-a]pyrazin-2-yl)-7-(4-ethylpiperazin-1-yl)-5-fluoro-2H-chromen-2-one] the EC1.5x (concentration giving 1.5-fold Smn protein increase) [1] was under 300 nM, the “maximum fold (Fold) increase” value [1] was “***** (fold increase >1.65)” and the melting point was 232 to 234 °C. The EC (1.5-fold) [2, 3] was under 0.1 µM.

In the case of CCN1C[C@@H]2CN(c3ccc4cc(-c5cn6cc(C)nc(C)c6n5)c(=O)oc4c3)C[C@@H]2C1 [Compound 747, 3-(6,8-dimethylimidazo[1,2-a]pyrazin-2-yl)-7-[(3aR,6aS)-5-ethylhexahydropyrrolo[3,4-c]pyrrol-2(1H)-yl]-2H-chromen-2-one], the EC1.5x (concentration giving 1.5-fold Smn protein increase) [1] is reported as under 300 nM, the “maximum fold (Fold) increase” value [1] is reported as “***** (fold increase >1.65)” and the melting point is reported as 231 to 237 °C. For the same compound, the EC (1.5-fold) [2, 3] was under 0.1 µM.

In the case of CCN1CCC(c2ccc3cc(-c4cn5cc(C)nc(C)c5n4)c(=O)oc3c2)CC1 [Compound 749, 3-(6,8-dimethylimidazo[1,2-a]pyrazin-2-yl)-7-(1-ethylpiperidin-4-yl)-2H-chromen-2-one], the EC1.5x (concentration giving 1.5-fold Smn protein increase) [1] is reported as under 300 nM, the “maximum fold (Fold) increase” value [1] is reported as “***** (fold increase >1.65)” and the melting point is reported as 218 to 223 °C. The EC (1.5-fold) [2, 3] was under 0.1 µM.

For Cc1cn2cc(-c3cc4ccc(C5CCN(CCO)CC5)cc4oc3=O)nc2c(C)n1 [Compound 750, 3-(6,8-dimethylimidazo[1,2-a]pyrazin-2-yl)-7-[1-(2-hydroxyethyl)piperidin-4-yl]-2H-chromen-2-one], the EC1.5x (concentration giving 1.5-fold Smn protein increase) [1] was under 300 nM, the “maximum fold (Fold) increase” value [1] was “***** (fold increase >1.65)” and the melting point was 207 to 212 °C. It also gave an EC (1.5-fold) [2, 3] of under 0.1 µM.

For Cc1cn2cc(-c3cc4ccc(N5C[C@@H](O)[C@H](N6CCCC6)C5)cc4oc3=O)cc2c(C)n1 [Compound 751, 3-(1,3-dimethylpyrrolo[1,2-a]pyrazin-7-yl)-7-[(3′R,4′R)-4′-hydroxy-1,3′-bipyrrolidin-1′-yl]-2H-chromen-2-one], the “maximum fold (Fold) increase” value [1] was “** (fold increase between >1.2 and ≤1.35)”, the melting point was 264 to 268 °C and the EC (1.5-fold) [2, 3] was under 0.1 µM.

In the case of Cc1cn2cc(-c3cc4ccc(N5CCCN(C(C)C)CC5)cc4oc3=O)cc2c(C)n1 [Compound 754, 3-(1,3-dimethylpyrrolo[1,2-a]pyrazin-7-yl)-7-[4-(propan-2-yl)-1,4-diazepan-1-yl]-2H-chromen-2-one], the “maximum fold (Fold) increase” value [1] is reported as “*** (fold increase between >1.35 and ≤1.5)”, the melting point is reported as 115 to 118 °C and the EC (1.5-fold) [2, 3] is reported as under 0.1 µM.
